The assay deals with T1, BK channels (Homo sapiens, UniProt Q12791).
T1 construct: expressed in transfected cells; host or cells: Xenopus laevis oocytes
Put plainly: BK channel opening activity, two-electrode voltage clamp in Xenopus oocytes. Type of assay: cell-based. As to conditions: BK channels heterologously expressed in Xenopus oocytes, 0.01-31.6 μM compound. On the procedure:
In this example the BK channel opening activity of Compound 8 is determined using BK channels heterologously expressed in Xenopus iaevis oocytes.
The electrical current through the BK channel was measured using conventional two-electrode voltage clamp. BK currents were activated by repeating ramp protocols. In brief, the membrane potential was continuously changed from −120 mV to +120 mV within a 2 s period. The threshold for BK activation is approximately +30 mV under control conditions. Compounds were applied for 100 s during which the ramp protocol was repeated 10 times with 10 s intervals. In between the ramp protocols the membrane potential was clamped at −80 mV. The first three compound applications were control blanks where the current level is allowed to stabilize. […]
In order to evaluate the ability of the compounds to shift the BK activation curve towards lower membrane potentials, the BK current was transformed into conductance by using Ohm's law g=I/(Ememb−Erev), where g is the conductance, I is the current, Ememb is the membrane potential and Erev is the reversal potential. […] The control conductance level at a membrane potential of +100 mV was calculated, and the compound effect was evaluated as the potential difference, […], to the membrane potential at which the same conductance level was obtained in the presence of compound. […]

T1 sequence (Q12791 whole entry): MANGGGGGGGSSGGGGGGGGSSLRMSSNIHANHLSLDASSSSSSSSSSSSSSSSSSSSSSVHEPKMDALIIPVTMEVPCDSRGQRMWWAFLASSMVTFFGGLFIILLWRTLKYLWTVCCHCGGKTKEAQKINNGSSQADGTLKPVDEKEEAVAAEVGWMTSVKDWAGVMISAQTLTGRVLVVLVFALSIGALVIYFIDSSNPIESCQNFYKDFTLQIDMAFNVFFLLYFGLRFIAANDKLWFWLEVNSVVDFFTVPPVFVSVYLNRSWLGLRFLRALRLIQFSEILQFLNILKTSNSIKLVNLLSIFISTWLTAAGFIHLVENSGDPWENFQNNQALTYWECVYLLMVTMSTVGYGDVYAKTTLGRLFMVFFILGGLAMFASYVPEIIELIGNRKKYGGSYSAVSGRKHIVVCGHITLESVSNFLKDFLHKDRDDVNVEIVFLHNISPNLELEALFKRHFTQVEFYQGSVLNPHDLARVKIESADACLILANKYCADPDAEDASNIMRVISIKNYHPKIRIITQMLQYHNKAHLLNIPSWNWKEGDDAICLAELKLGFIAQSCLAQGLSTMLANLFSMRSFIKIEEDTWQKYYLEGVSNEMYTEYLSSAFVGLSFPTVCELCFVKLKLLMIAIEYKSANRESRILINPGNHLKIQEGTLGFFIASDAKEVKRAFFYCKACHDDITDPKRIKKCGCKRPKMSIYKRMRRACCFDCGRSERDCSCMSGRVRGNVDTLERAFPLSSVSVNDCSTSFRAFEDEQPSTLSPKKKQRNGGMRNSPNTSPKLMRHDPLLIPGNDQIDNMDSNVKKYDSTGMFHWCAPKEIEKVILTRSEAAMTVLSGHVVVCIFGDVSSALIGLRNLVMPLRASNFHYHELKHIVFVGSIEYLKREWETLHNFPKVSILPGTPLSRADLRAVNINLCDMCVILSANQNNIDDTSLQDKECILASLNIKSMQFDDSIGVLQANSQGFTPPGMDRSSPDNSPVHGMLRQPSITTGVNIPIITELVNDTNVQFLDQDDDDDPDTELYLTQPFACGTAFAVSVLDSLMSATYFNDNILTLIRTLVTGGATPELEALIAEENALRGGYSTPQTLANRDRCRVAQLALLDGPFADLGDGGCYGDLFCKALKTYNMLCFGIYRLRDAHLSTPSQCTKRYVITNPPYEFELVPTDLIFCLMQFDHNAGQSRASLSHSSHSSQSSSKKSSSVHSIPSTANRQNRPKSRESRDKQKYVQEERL

For `O=C(COc1cccc(Cl)c1)Nc1cc(Cl)ccc1-c1noc(=O)[nH]1` [Compound 8], the “maximal left-shift for the BK-activation curve (ΔVmax)” value (fitted to sigmoidal logistic equation) is recorded as -94 mV. Where the note is “ramp -120 to +120 mV, ΔV at control conductance level of +100 mV, read-out: EC50 for the left-shift of the BKca-activation curve”, the EC50 came to 8.2 µM.

For the origin of these results see patent US20100292283A1, “NOVEL PHENYL-ACETAMIDE AND PHENYL-PROPIONAMIDE DERIVATIVES USEFUL AS POTASSIUM CHANNEL MODULATORS” (priority 2007, published 2010).
